The source of these data is US9750256B2, “Herbicidal isoxazolo[5,4-B]pyridines” (BASF SE, priority 2012, dated 2017).

Common to all, as to format: in vivo
Experiment [1] relates to Chenopodium album (fat-hen). The experiment can be described thus: Greenhouse post-emergence treatment of Chenopodium album. Particulars: scale 0 (no damage) to 100 (complete destruction). From the text:
(§1) The culture containers used were plastic flowerpots containing loamy sand with approximately 3.0% of humus as the substrate. The seeds of the test plants were sown separately for each species.
(§2) For the post-emergence treatment, the test plants were first grown to a height of 3 to 15 cm, depending on the plant habit, and only then treated with the active ingredients which had been suspended or emulsified in water. For this purpose, the test plants were either sown directly and grown in the same containers, or they were first grown separately as seedlings and transplanted into the test containers a few days prior to treatment.
(§3) Depending on the species, the plants were kept at 10-25° C. or 20-35° C. The test period extended over 2 to 4 weeks. During this time, the plants were tended, and their response to the individual treatments was evaluated.
(§4) Evaluation was carried out using a scale from 0 to 100. 100 means no emergence of the plants, or complete destruction of at least the aerial moieties, and 0 means no damage, or normal course of growth. A good herbicidal activity is given at values of at least 80 and a very good herbicidal activity is given at values of at least 90.

In experiment [2] the test system is Amaranthus retroflexus L. (pigweed). The experiment is described as follows: Greenhouse post-emergence treatment of Amaranthus retroflexus L. Particulars: scale 0 (no damage) to 100 (complete destruction).
Text: as §1, §2, §3, §4

Experiment [3] deals with Polygonum convolvulus (wild buckwheat). The experiment can be described thus: Greenhouse post-emergence treatment of Polygonum convolvulus. Particulars: scale 0 (no damage) to 100 (complete destruction).
Text: as §1, §2, §3, §4

Experiment [4] concerns Echinochloa crus-galli (barnyard grass). The experiment is described as follows: Greenhouse post-emergence treatment of Echinochloa crus-galli. Particulars: application rate 500 [kg/ha], scale 0 (no damage) to 100 (complete destruction).
Text: as §1, §2, §3, §4

In experiment [5] the test system is Setaria viridis (green foxtail). The experiment is described as follows: Greenhouse post-emergence treatment of Setaria viridis. Particulars: application rate 500 [kg/ha], scale 0 (no damage) to 100 (complete destruction).
Text: as §1, §2, §3, §4

Turning to `CCC(CCc1noc2nc(C3CC3)cc(C(=O)O)c12)=NN` [I.a.81], the “damage [%]” value in experiment [1] (application rate 500 [kg/ha]) is 75%.

As to `CCC(CCc1noc2nc(C3CC3)cc(C(=O)O)c12)=NOC` (mixture of isomers) [I.a.80], the “damage [%]” value in experiment [1] (application rate 500 [kg/ha]) turned out to be 98%; in experiment [2] (application rate 500 [g/ha]), 100%; in experiment [3] (application rate 500 [kg/ha]), 100%. Turning to `O=C(O)c1cc(C2CC2)nc2onc(OCc3ccccc3)c12` [I.a.66], the “damage [%]” value in experiment [1] (application rate 1000 [kg/ha]) and in experiment [2] (application rate 1000 [g/ha]) was 100% in each case. For `CCC(=O)CCc1noc2nc(C3CC3)cc(C(=O)O)c12` [I.a.74], the “damage [%]” value in experiment [1] (application rate 500 [kg/ha]) and in experiment [2] (application rate 500 [g/ha]) was 98% in each case.

Take `O=C(O)c1cc(C2CC2)nc2onc(OC3COC3)c12` [I.a.89]: the “damage [%]” value in experiment [1] (application rate 500 [kg/ha]) and in experiment [2] (application rate 500 [g/ha]) was 70% throughout. On to `O=C(O)c1cc(C2CC2)nc2onc(SC3CCCCC3)c12` [I.a.86], for which the “damage [%]” value in experiment [2] (application rate 500 [g/ha]) was 95%. Regarding `O=C(O)c1cc(C2CC2)nc2onc(OC3CCCCC3Cl)c12` (stereo not shown) [I.a.88], the “damage [%]” value in experiment [1] (application rate 500 [kg/ha]) and in experiment [2] (application rate 500 [g/ha]) was 100% in each case. As for `C=CCOc1noc2nc(C3CC3)cc(C(=O)O)c12` [I.a.44], the “damage [%]” value in experiment [1] (application rate 1000 [kg/ha]) and in experiment [2] (application rate 1000 [g/ha]) was 100% in each case.

In the case of `COCCOc1noc2nc(C3CC3)cc(C(=O)O)c12` [I.a.67], the figures for the “damage [%]” value in experiment [1] (application rate 1000 [kg/ha]) and in experiment [3] (application rate 1000 [kg/ha]) were 100% and 98%, respectively. Take `O=C(O)c1cc(C2CC2)nc2onc(SCc3ccccc3)c12` [I.a.85]: the “damage [%]” value in experiment [4] came to 70%. Regarding `O=C(O)c1cc(C2CC2)nc2onc(OC3CCCC3)c12` [I.a.91], the “damage [%]” value was found to be 98% in experiment [1] (application rate 500 [kg/ha]) and 100% in experiment [2] (application rate 500 [g/ha]). As to `O=C(O)c1cc(C2CC2)nc2onc(SC3CCCC3)c12` [I.a.87], the “damage [%]” value in experiment [1] (application rate 500 [kg/ha]) was determined as 70%; in experiment [2] (application rate 500 [g/ha]) it was 80%; in experiment [4], 75%. With `CCC(CCc1noc2nc(C3CC3)cc(C(=O)O)c12)=NO` (mixture of isomers) [I.a.79], the “damage [%]” value in experiment [2] (application rate 500 [g/ha]) was 100%; in experiment [3] (application rate 500 [kg/ha]), 85%. Regarding `O=C(O)c1cc(C2CC2)nc2onc(OC3CCC3)c12` [I.a.92], the “damage [%]” value in experiment [1] (application rate 500 [kg/ha]) turned out to be 100%; in experiment [2] (application rate 500 [g/ha]) it was 100%; in experiment [5] it was 85%. Consider `O=C(NCC(F)(F)F)NN=CCCc1noc2nc(C3CC3)cc(C(=O)O)c12` [I.a.60], for which the “damage [%]” value in experiment [3] (application rate 500 [kg/ha]) was 95%. `CON=CCCc1noc2nc(C3CC3)cc(C(=O)O)c12` [I.a.59]: the “damage [%]” value in experiment [1] (application rate 500 [kg/ha]) and in experiment [2] (application rate 500 [g/ha]) was 98% in each case.
